Experimental data from article PMC11678245, “The Molecular Basis of the Intrinsic and Acquired Resistance to Azole Antifungals in Aspergillus fumigatus” (Journal of Fungi, 2024).
Where “and” joins values, the source holds several entries; their conditions need not be identical. Equal entries are not always repeated. Where two headings read alike, the source gives them in different places.

Tests used:
[1] = test system: S. cerevisiae strain BRE (AfCyp51B-6×His, AfCprA2, AfErg6-FLAG); assay: MIC80 susceptibility, strain BRE; assay type: cell-based, Saccharomyces cerevisiae; settings: strain BRE; for MIC: 48 h; for MIC / MIC80: ± SD
Method: (§1) The susceptibilities of S. cerevisiae strains to antifungal drugs were determined as minimum growth inhibitory concentration (MIC) values in 200 μL SD pH 6.8 [24]. Serial 2-fold dilutions of 100 μL of azole or control drugs in SD pH 6.8 were prepared in a 96-well microtiter plate. A portion of a 2 mL SD pH 6.8 overnight culture of the test strain was inoculated into 3 mL fresh SD pH 6.8 and incubated for 4 to 6 h at 30 °C to generate logarithmic-phase cells. These cells were then diluted with fresh SD pH 6.8 to OD600nm = 0.01 (3 × 10^4 CFU), and 100 μL of this cell suspension was added to microtiter plate wells. Cell growth after 48 h incubation at 30 °C with shaking at 200 rpm was determined at 600 nm using a BioTek™ Synergy™ 2 multi-Mode microplate reader controlled using Gen5™ Data Analysis Software version 3.16.10 (BioTek Instruments, Winooski, VT, USA). MIC80 values (80% growth inhibition in the presence of the test drug compared with the untreated control) for each yeast construct were determined as technical triplicates repeated three times for three separate clones.

[2] = test system: S. cerevisiae strain ARE Y121F (AfCyp51A-6×His Y121F, AfCprA2, AfErg6-FLAG); assay: MIC80 susceptibility, strain Y121F; assay type: cell-based, Saccharomyces cerevisiae
Method: as §1

[3] = test system: S. cerevisiae strain ARE I301T (AfCyp51A-6×His I301T, AfCprA2, AfErg6-FLAG); assay: MIC80 susceptibility, strain I301T; assay type: cell-based, Saccharomyces cerevisiae; settings: for MIC80: ± SD
Method: as §1

[4] = test system: S. cerevisiae strain ARE (AfCyp51A-6×His, AfCprA2, AfErg6-FLAG); assay: MIC80 susceptibility, strain ARE; assay type: cell-based, Saccharomyces cerevisiae
Method: as §1

[5] = test system: S. cerevisiae strain ARE T289A (AfCyp51A-6×His T289A, AfCprA2, AfErg6-FLAG); assay: MIC80 susceptibility, strain T289A; assay type: cell-based, Saccharomyces cerevisiae; settings: for MIC80: ± SD
Method: as §1

[6] = test system: S. cerevisiae strain ARE Y121F T289A (AfCyp51A-6×His Y121F T289A, AfCprA2, AfErg6-FLAG); assay: MIC80 susceptibility, strain Y121F T289A; assay type: cell-based, Saccharomyces cerevisiae
Method: as §1

[7] = test system: S. cerevisiae strain BR (AfCyp51B-6×His, AfCprA2-6×His); assay: MIC80 susceptibility, strain BR; assay type: cell-based; settings: Saccharomyces cerevisiae, 48 h, pH 6.8
Method: as §1

[8] = test system: S. cerevisiae strain AR (AfCyp51A-6×His, AfCprA2-6×His); assay: MIC80 susceptibility, strain AR; assay type: cell-based, Saccharomyces cerevisiae; settings: Saccharomyces cerevisiae, 48 h, pH 6.8
Method: as §1

[9] = test system: S. cerevisiae strain ADLS overexpressing ScCYP51-6×His; assay: MIC80 susceptibility, strain ADLS; assay type: cell-based, Saccharomyces cerevisiae
Method: as §1

[10] = test system: S. cerevisiae strain A (AfCyp51A-6×His, native ScCyp51 retained); assay: MIC80 susceptibility, strain A; assay type: cell-based; settings: Saccharomyces cerevisiae, Table 2, SD pH 6.8, 48 h, 30 °C
Method: as §1

[11] = test system: S. cerevisiae strain ADΔΔ (native ScCYP51); assay: MIC80 susceptibility, host strain ADΔΔ; assay type: cell-based; settings: Saccharomyces cerevisiae, Table 2, SD pH 6.8, 48 h, 30 °C
Method: as §1

[12] = biological target: T1, AfCYP51B-6×His (Aspergillus fumigatus, UniProt E9QY26); assay: Type II binding of azole drugs (difference spectra)
T1 sequence (E9QY26 1-524): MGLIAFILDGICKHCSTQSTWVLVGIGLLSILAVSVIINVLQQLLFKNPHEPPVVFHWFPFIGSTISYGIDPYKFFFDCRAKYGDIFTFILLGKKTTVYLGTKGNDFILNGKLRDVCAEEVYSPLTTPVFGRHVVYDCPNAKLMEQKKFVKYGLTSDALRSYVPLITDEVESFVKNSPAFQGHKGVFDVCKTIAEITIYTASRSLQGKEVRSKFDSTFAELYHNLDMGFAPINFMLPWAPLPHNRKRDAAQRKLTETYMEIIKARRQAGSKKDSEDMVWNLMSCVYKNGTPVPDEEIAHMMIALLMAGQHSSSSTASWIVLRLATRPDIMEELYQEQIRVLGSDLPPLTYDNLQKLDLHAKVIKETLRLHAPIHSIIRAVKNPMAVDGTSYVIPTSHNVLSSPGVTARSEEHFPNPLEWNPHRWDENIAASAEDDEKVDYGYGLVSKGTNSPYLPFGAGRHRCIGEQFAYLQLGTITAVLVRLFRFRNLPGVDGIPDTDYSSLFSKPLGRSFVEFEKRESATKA
Method: The concentration of AfCYP51A and AfCYP51B, purified using Ni-NTA affinity chromatography and used for the spectrophotometric type I and type II binding assays, was calculated using an extinction co-efficient of λ417nm = 117 mM^−1 cm^−1 applied to the absolute absorption spectrum of the preparations. In addition, the amount of “active” cytochrome P450 enzyme was determined using the carbon monoxide (CO) binding spectra of these preparations.
Type II binding difference spectra were obtained using 1 μM of affinity-purified CYP51 enzymes. VCZ, PCZ, VT-1161, DCZ, and MCF working solutions were prepared in DMSO, while FLC was prepared in Milli-Q water. Azole drugs were added to the sample cuvette, and corresponding amounts of DMSO or Milli-Q water were added to the reference cuvette. Drug binding curves were plotted using the difference spectrum peak and trough detected in the range of 410–425 nm. Dissociation constants (Kd) were determined by nonlinear regression (Levenberg–Marquardt algorithm) of the difference in absorbance between the peak and trough against the azole concentration using a rearrangement of the Morrison equation or the Hill equation [7]. GraphPad Prism 9.2.0 software was used to identify the best fit for the data.

[13] = test system: S. cerevisiae Y2300 ADΔΔ CYP51 (ScCYP51); assay: MIC80 susceptibility, strain Y2300 (Table S1); assay type: cell-based, Saccharomyces cerevisiae; settings: Table S1; strain Y2300 ADΔΔ CYP51
Method: as §1, with “clones. […]” for “clones.”
(§2) Table S1. Azole susceptibilities of ScCYP51 and ScCYP51 T322I expressed
(§3) Data for each strain was obtained for […] in three biological replicates.

[14] = test system: S. cerevisiae Y2305 ADΔΔ CYP51 T322I (ScCYP51 T322I); assay: MIC80 susceptibility, strain Y2305 (Table S1); assay type: cell-based, Saccharomyces cerevisiae
Method: as §1, with “clones. […]” for “clones.”
as §2, §3

[15] = Saccharomyces cerevisiae, Table 3
[16] = Saccharomyces cerevisiae, Table 3, read-out: MIC80
[17] = Saccharomyces cerevisiae, Table 3, strain ARE Y121F, ± SD, read-out: MIC80
[18] = Saccharomyces cerevisiae, Table 3, strain ARE I301T, read-out: MIC80
[19] = Saccharomyces cerevisiae, 48 h, read-out: MIC80
[20] = Saccharomyces cerevisiae, Table 3, strain ARE, ± SD, read-out: MIC80
[21] = Saccharomyces cerevisiae, Table 3, strain ARE T289A, read-out: MIC80
[22] = Saccharomyces cerevisiae, Table 3, strain ARE Y121F T289A, ± SD, read-out: MIC80
[23] = Table 3, strain ARE Y121F, ± SD
[24] = Table 3, strain ARE Y121F T289A, ± SD
[25] = Saccharomyces cerevisiae, 48 h, pH 6.8

C[C@@H](c1nc(-c2ccc(C#N)cc2)cs1)[C@](O)(Cn1cncn1)c1ccc(F)cc1F [RVC, ravuconazole]
MIC [1, 15]: < 0.0156 µM | MIC80 [1, 16]: 0.0038 ± 0.0008 µM | increase in resistance (MIC80) of strain Y121F compared with strain ARE [2]: 3- to 5 fold and 6 fold | MIC80 [2, 17]: 0.047 ± 0.005 µM | MIC80 [3, 18]: 0.0034 ± 0.0015 µM | lower susceptibility of strain ARE compared to strain BRE [4]: 2 fold | MIC [4, 19]: < 0.0156 µM | MIC80 [4, 20]: 0.0088 ± 0.0023 µM | MIC80 [5, 21]: 0.0032 ± 0.0015 µM | increase in resistance (MIC80) of strain Y121F T289A compared with strain ARE [6]: 3- to 5 fold | MIC80 [6, 22]: 0.033 ± 0.006 µM

OC(Cn1cncn1)(Cn1cncn1)c1ccccc1 [MCC7915]
MIC80 ([1]; Table 3): 223 ± 79 µM | reduced susceptibility compared to FLC [1]: 50 fold | MIC80 [2, 23]: 180 ± 11 µM | MIC80 ([3]; Table 3, strain ARE I301T): 278 ± 45 µM | MIC80 ([4]; Table 3, strain ARE, ± SD): 427 ± 23 µM | reduced susceptibility compared to FLC ([4]; strain ARE): 2.5 fold | MIC80 ([5]; Table 3, strain ARE T289A): 248 ± 23 µM | MIC80 [6, 24]: 219 ± 29 µM

CC1COC(Cn2cncn2)(c2ccc(Oc3ccc(Cl)cc3)cc2Cl)O1 (centres unmarked) [DCZ, difenoconazole]
MIC80 ([1]; Saccharomyces cerevisiae, Table 2, SD pH 6.8, 48 h, 30 °C, read-out: MIC80): < 0.01 µM | increased susceptibility of AfCYP51A Y121F mutant (vs ARE) [2]: 2 fold | MIC80 [2, 25]: 0.37 ± 0.02 µM | MIC80 [7]: < 0.01 µM | MIC80 [8]: 0.07 ± 0.01 µM | MIC80 ([3]; Saccharomyces cerevisiae, 48 h, pH 6.8, Table 2, strain I301T, SD pH 6.8, 48 h, 30 °C): 0.35 ± 0.06 µM | MIC80 [9, 25]: 0.04 ± 0.02 µM | MIC80 ([9]; Table 2, strain ADLS, SD pH 6.8, 48 h, 30 °C, ± SD): 0.04 ± 0.01 µM | MIC80 [4, 25]: 0.64 ± 0.04 µM | MIC80 [10]: 0.01 µM | greater susceptibility (MIC80) of strain T289A compared with strain ARE [5]: 64 fold | MIC80 ([5]; Saccharomyces cerevisiae, 48 h, pH 6.8, Table 2, strain T289A, SD pH 6.8, 48 h, 30 °C): < 0.01 µM | increase in resistance (MIC80) of strain Y121F T289A compared with strain ARE [6]: 1.5 fold | MIC80 [6, 25]: 0.92 ± 0.07 µM | MIC80 [11]: < 0.01 µM | λpeak (type II difference spectrum) ([12]; 1 μM enzyme): 426 nm | λtrough (type II difference spectrum) ([12]; 1 μM enzyme): 410 nm | ΔAmax (type II binding) ([12]; 1 μM enzyme, Hill equation): 0.10 | Hill Number ([12]; type II binding): 1.55 | Kd ([12]; type II binding, 1 μM enzyme, Hill equation): 1.76 ± 0.08 µM

OC(Cn1cncn1)(Cn1cncn1)c1cc(F)ccc1F [MCC8768]
MIC80 ([1]; Table 3): 25 ± 8 µM | reduced susceptibility compared to FLC [1]: > 6 fold | MIC80 [2, 23]: 324 ± 109 µM | MIC80 ([3]; Table 3, strain ARE I301T): 211 ± 21 µM | reduced susceptibility compared to FLC ([3]; strain I301T): ~ 3 fold | MIC80 ([4]; Table 3, strain ARE, ± SD): 354 ± 76 µM | reduced susceptibility compared to FLC ([4]; strain ARE): ~ 3 fold | MIC80 ([5]; Table 3, strain ARE T289A): 106 ± 28 µM | reduced susceptibility compared to FLC ([5]; strain T289A): > 6 fold | MIC80 [6, 24]: 1025 ± 148 µM

OC(Cn1cncn1)(Cn1cncn1)c1ccccc1F [MCC7916]
MIC80 ([1]; Table 3): 21 ± 3 µM | MIC80 [2, 23]: 80 ± 17 µM | MIC80 ([3]; Table 3, strain ARE I301T): 51 ± 6 µM | MIC80 ([4]; Table 3, strain ARE, ± SD): 120 ± 40 µM | MIC80 ([5]; Table 3, strain ARE T289A): 52 ± 6 µM | MIC80 [6, 24]: 198 ± 41 µM

OC(Cn1cncn1)(Cn1cncn1)c1ccc(F)cc1 [MCC7917]
MIC80 ([1]; Table 3): 38 ± 11 µM | MIC80 [2, 23]: 179 ± 9 µM | MIC80 ([3]; Table 3, strain ARE I301T): 257 ± 37 µM | MIC80 ([4]; Table 3, strain ARE, ± SD): 411 ± 30 µM | MIC80 ([5]; Table 3, strain ARE T289A): 103 ± 11 µM | MIC80 [6, 24]: 242 ± 41 µM

CCC(C)n1ncn(-c2ccc(N3CCN(c4ccc(OCC5COC(Cn6cncn6)(c6ccc(Cl)cc6Cl)O5)cc4)CC3)cc2)c1=O (centres unmarked) [ITC]
MIC80 [13]: 0.15 ± 0.01 µM | MIC80 [14]: 0.13 ± 0.01 µM

C[C@@H](c1nc(-c2ccc(C#N)cc2)cs1)[C@](O)(Cn1cncn1)c1cc(F)ccc1F [IVC, isavuconazole]
MIC [1, 15]: < 0.0156 µM | MIC80 [1, 16]: 0.0109 ± 0.003 µM | increase in resistance (MIC80) of strain Y121F compared with strain ARE [2]: 3- to 5 fold and 3 fold | MIC80 [2, 17]: 0.071 ± 0.014 µM | MIC80 [3, 18]: 0.0119 ± 0.0028 µM | lower susceptibility of strain ARE compared to strain BRE [4]: 2 fold | MIC [4, 19]: < 0.0156 µM | MIC80 [4, 20]: 0.021 ± 0.007 µM | MIC80 [5, 21]: 0.0102 ± 0.0057 µM | increase in resistance (MIC80) of strain Y121F T289A compared with strain ARE [6]: 3- to 5 fold | MIC80 [6, 22]: 0.11 ± 0.011 µM
